Data reported in patent publication US7595330B2, “Benzimidazole thiophene compounds” (SmithKline Beecham Corporation, priority 2005, dated 2009).

Experiments:
PLK1 kinase domain = biological target: T1, PLK1 kinase domain (Homo sapiens, UniProt P53350); assay: Assay for inhibition of PLK1 (SPA, 33P-ATP, biotinylated peptide substrate); assay type: biochemical; details: 1 μM ATP, 2 nM PLK1 kinase domain; read-out: PLK1 pIC50 (converted)
T1 construct: made in house; host or cells: baculovirus infected T. ni cells
T1 sequence (P53350 21-346): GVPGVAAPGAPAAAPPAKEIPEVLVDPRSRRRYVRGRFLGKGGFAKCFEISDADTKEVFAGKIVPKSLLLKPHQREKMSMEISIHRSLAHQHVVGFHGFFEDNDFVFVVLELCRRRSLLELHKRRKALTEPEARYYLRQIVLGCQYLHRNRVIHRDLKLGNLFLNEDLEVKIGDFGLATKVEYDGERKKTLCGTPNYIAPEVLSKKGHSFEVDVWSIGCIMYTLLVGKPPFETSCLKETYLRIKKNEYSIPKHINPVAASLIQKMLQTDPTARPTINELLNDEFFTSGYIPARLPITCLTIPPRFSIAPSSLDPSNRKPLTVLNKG
Procedure: I. Assay for Inhibition of PLK1
All procedures were performed at 4° C. Cells were lysed in 50 mM HEPES, 200 mM NaCl, 50 mM imidazole, 5% glycerol; pH 7.5. The homogenate was centrifuged at 14K rpm in a SLA-1500 rotor for 1 h and the supernatant filtered through a 1.2 micron filter. The supernatant was loaded onto a Nickel chelating Sepharose (Amersham Pharmacia) column and washed with lysis buffer. Protein was eluted using 20%, 30% and 100% buffer B steps where buffer B is 50 mM HEPES, 200 mM NaCl, 300 mM imidazole, 5% glycerol; pH 7.5. Fractions containing PLK were determined by SDS-PAGE. Fractions containing PLK were diluted five-fold with 50 mM HEPES, 1 mM DTT, 5% glycerol; pH 7.5, then loaded on an SP Sepharose (Amersham Pharmacia) column. After washing the column with 50 mM HEPES, 1 mM DTT, 5% glycerol; pH 7.5, PLK was step eluted with 50 mM HEPES, 1 mM DTT, 500 mM NaCl; 5% glycerol; pH 7.5. PLK was concentrated using a 10 kDa molecular weight cutoff membrane and then loaded onto a Superdex 200 gel filtration (Amersham Pharmacia) column equilibrated in 25 mM HEPES, 1 mM DTT, 500 mM NaCl, 5% glycerol; pH 7.5. Fractions containing PLK were determined by SDS-PAGE. PLK was pooled, aliquoted and stored at −80° C. Samples were quality controlled using mass spectrometry, N-terminal sequencing and amino acid analysis.
B. Enzyme activity +/− inhibitors was determined as follows: All measurements were obtained under conditions where signal production increased linearly with time and enzyme. Test compounds were added to white 384-well assay plates (0.1 μL for 10 μL and some 20 μL assays, 1 μL for some 20 μL assays) at variable known concentrations in 100% DMSO. DMSO (1-5% final, as appropriate) and EDTA (65 mM in reaction) were used as controls.
Reaction Mix (10 or 20 μL) was quickly added to each well immediately following addition of enzyme via automated liquid handlers and incubated 1-1.5 h at 22° C. The 20 μL enzymatic reactions were stopped with 50 μL of stop mix (50 mM EDTA, 4.0 mg/ml Streptavidin SPA beads in Standard Dulbecco's PBS (without Mg^2+ and Ca^2+), 50 μM ATP) per well. The 10 μL reactions were stopped with 10 μL of stop mix (50 mM EDTA, 3.0 mg/mL Streptavidin-coupled SPA Imaging Beads (“LeadSeeker”) in Standard Dulbecco's PBS (without Mg^2+ and Ca^2+), 50 μM ATP) per well. Plates were sealed with clear plastic seals, spun at 500×g for 1 min or settled overnight, and counted in Packard TopCount for 30 seconds/well (regular SPA) or imaged using a Viewlux imager (LeadSeeker SPA). Signal above background (EDTA controls) was converted to percent inhibition relative to that obtained in control (DMSO-only) wells.

HCT116 = assay: Methylene blue growth inhibition assay, HCT116; assay type: cell-based; details: Homo sapiens, HCT-116; methylene blue, 72 h, HCT116; read-out: HCT116 IC50
Procedure: (§1) II. Methylene Blue Growth Inhibition Assay—Inhibition of Cell Proliferation by PLK1 Inhibitors
(§2) Generally, exponentially growing cell lines of different tumor origins, cultured in appropriate media containing 10% fetal bovine serum at 37° C. in a 5% CO2 incubator were plated at low density (less than 2000 cells/well) in 96-well plates. […]. Seventy two hours post-treatment, cell numbers were determined using 100 μl per well of methylene blue (Sigma M9140) (0.5% in 50:50 Ethanol:water). Stain was incubated at room temperature for 30 minutes before plates were rinsed and dye solubilized in 1% N-lauroyl sarcosine, sodium salt, (Sigma L5125, in PBS) (further details of a methylene blue assay are described below). Plates were read on a microplate reader, measuring the OD at 620 nm.
(§3) . The data are shown in Table 1 below and represent a compilation of several different experiments, each performed using the general parameters outlined above, although minor variations may have been employed in some instances.
(§4) In one assay, normal human foreskin fibroblasts (HFF), human colon (HCT116, RKO), lung (H460, A549) and breast (MCF7) tumor cell lines were cultured in high glucose DMEM (Life Technologies) containing 10% fetal bovine serum (FBS) at 37° C. in a humidified 5% CO2, 95% air incubator. Cells were harvested using trypsin/EDTA, counted using a haemocytometer, and plated in 100 μL of culture media per well, at the following densities, in a 96-well tissue culture plate (Falcon 3075): HFF 5,000 cells/well, HCT116 3,000 cells/well, RKO 2,500 cells/well, H460 2,500 cells/well, A549 5,000 cells/well, MCF7 4,000 cells/well. The next day, compounds were diluted in low glucose DMEM containing 100 μg/mL gentamicin, at twice the final required concentration, from 10 mM stock solutions in DMSO. 100 μL/well of these dilutions were added to the 100 μL of media currently in the assay plates. Medium containing 0.6% DMSO was added to control wells. The final concentration of DMSO in all wells was 0.3%. Cells were incubated at 37° C., 5% CO2 for 72 h. Medium was removed by aspiration. Cell biomass was estimated by staining cells with 80 μL per well methylene blue (Sigma M9140, 0.5% in 50:50 ethanol:water), and incubation at room temperature for 30-60 min. Stain was removed by aspiration and the plates rinsed by immersion in water, then air-dried. To release stain from the cells, 100 μL of solubilization solution was added (1% N-lauroyl sarcosine, Sodium salt, Sigma L5125, in PBS), and plates were shaken gently for about 30 min. Optical density at 620 nm was measured on a microplate reader. Percent inhibition of cell growth was calculated relative to vehicle treated control wells. […].

H460 = assay: Methylene blue growth inhibition assay, H460; assay type: cell-based; details: Homo sapiens, NCI-H460; methylene blue, 72 h, H460; read-out: H460 IC50
Procedure: as §1, §2, §3, §4

MCF7 = assay: Methylene blue growth inhibition assay, MCF7; assay type: cell-based; details: Homo sapiens; methylene blue, 72 h, MCF7; read-out: MCF7 IC50
Procedure: as §1, §2, §3, §4

A549 = assay: Methylene blue growth inhibition assay, A549; assay type: cell-based; details: Homo sapiens; methylene blue, 72 h, A549; read-out: A549 IC50
Procedure: as §1, §2, §3, §4

RKO = assay: Methylene blue growth inhibition assay, RKO; assay type: cell-based; details: Homo sapiens, methylene blue, 72 h, read-out: RKO IC50
Procedure: as §1, §2, §3, §4

[1] = system: normal human foreskin fibroblasts (HFF); assay: Methylene blue growth inhibition assay, HFF; assay type: cell-based; details: Fibroblast, methylene blue, 72 h, HFF normal fibroblasts, read-out: HFF IC50
Procedure: as §1, §2, §3, §4

human plasma proteins = assay: Protein binding to human plasma proteins using equilibrium dialysis; assay type: in vitro ADME; details: pH 7.4, equilibrium dialysis 6 h, 37° C.
Procedure: III. Determination of Protein Binding to Human Plasma Proteins Using Equilibrium Dialysis
96 Well Plate (High Throughput Dialysis): Stock solutions of compounds were spiked into human plasma at a target concentration of 2000 ng/mL. The mixture was inverted gently several times to insure homogeneity and triplicate 50 μL aliquots were collected to verify initial concentrations. Following assembly of dialysis plate (HTDialysis membrane strips, molecular weight cut off limit of 12,000-14,000 daltons), spiked plasma (150 μL) was placed in the donor compartment of the well and Phosphate Buffered Saline pH 7.4 (150 μL) in the receiver compartment. Eight wells were set up per compound and plasma type. Plate was placed in a 37° C. incubator on a plate shaker. Following the 6 h incubation period, the plate was removed. Single 50 μL aliquots from each donor and receiver compartment (per well) were analyzed. Sample analysis was by LC/MS/MS (results reported as Drug Peak Area/Internal Standard Peak Area ratios). Protein binding assay can also be performed using dialysis cells instead of HT Dialysis 96 well plates. In Table 1, % Protein Binding, +=>98%; ++=95-98%: +++=<95%.

[2] = High throughput solubility assay; assay type: physicochemical; details: aqueous buffer, pH 7.4, 0.05M phosphate buffer
Procedure: IV. High Throughput Solubility Assay
Two samples are prepared for each compound. One (the standard sample) contains the compound at a fixed concentration of 20 μM in an aqueous/organic mixed solvent cocktail. The other (the test sample) contains the compound at a maximum concentration of 200 μM in pH 7.4, 0.05M phosphate buffer and shaking for 24 h. The test sample is filtered by 0.45μ filter and then spun for 10 min to remove any undissolved solid. HPLC analyses are preformed on these samples. The peak areas are used for computing solubility.

Row | SMILES | IC50 (PLK1 kinase domain) | IC50 (HCT116) | IC50 (H460) | IC50 (MCF7) | IC50 (A549) | fraction unbound at 6 h, 2000 ng/mL (human plasma proteins) | solubility at 24 h [2] | IC50 (RKO) | IC50 [1]
1 | C[C@@H](Oc1cc(-n2cnc3ccc(CS(C)(=O)=O)cc32)sc1C(N)=O)c1ccccc1C(F)(F)F [Example 1, 5-{6-[(Methylsulfonyl)methyl]-1H-benzimidazol-1-yl}-3-({(1R)-1-[2-(trifluoromethyl)phenyl]ethyl}oxy)-2-thiophenecarboxamide] | < 10 nM | < 100 nM | < 100 nM | < 100 nM | < 100 nM | 0.02 to 0.05 | 30 to 100 µM | < 100 nM | 100 to 1000 nM
2 | C[C@@H](Oc1cc(-n2cnc3ccc(CN4CCN(C)CC4)cc32)sc1C(N)=O)c1ccccc1Cl [Example 4, 3-{[(1R)-1-(2-Chlorophenyl)ethyl]oxy}-5-{6-[(4-methylpiperazin-1-yl)methyl]-1H-benzimidazol-1-yl}thiophene-2-carboxamide] | < 10 nM | < 100 nM | < 100 nM | < 100 nM | < 100 nM |  | > 100 µM | < 100 nM | < 100 nM
3 | C[C@@H](Oc1cc(-n2cnc3ccc(OC4CCNCC4)cc32)sc1C(N)=O)c1ccccc1Cl [Example 6, 3-{[(1R)-1-(2-Chlorophenyl)ethyl]oxy}-5-[6-(4-piperidinyloxy)-1H-benzimidazol-1-yl]-2-thiophenecarboxamide] | < 10 nM | < 100 nM | < 100 nM |  | < 100 nM | > 0.05 | > 100 µM | < 100 nM | 100 to 1000 nM

Now from value to molecule, other results behind:

Row | IC50 (PLK1 kinase domain) | IC50 (HCT116) | IC50 (H460) | IC50 (MCF7) | IC50 (A549) | fraction unbound at 6 h, 2000 ng/mL (human plasma proteins) | solubility at 24 h [2] | SMILES | IC50 (RKO) | IC50 [1]
4 |  |  |  |  |  | > 0.05 | > 100 µM | C[C@@H](Oc1cc(-n2cnc3ccc(OC4CCN(C)CC4)cc32)sc1C(N)=O)c1ccccc1C(F)(F)F [Example 7, 5-{6-[(1-Methyl-4-piperidinyl)oxy]-1H-benzimidazol-1-yl}-3-({(1R)-1-[2-(trifluoromethyl)phenyl]ethyl}oxy)-2-thiophenecarboxamide] |  | 
5 |  |  |  |  |  | > 0.05 | > 100 µM | C[C@@H](Oc1cc(-n2cnc3ccc(OC4CCN(C)CC4)cc32)sc1C(N)=O)c1ccccc1Cl [Example 8, 3-{[(1R)-1-(2-Chlorophenyl)ethyl]oxy}-5-{6-[(1-methyl-4-piperidinyl)oxy]-1H-benzimidazol-1-yl}-2-thiophenecarboxamide] |  | 
